This note sets out measurements from ChEMBL document CHEMBL1201862, “PubChem BioAssay data set” (2004).

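Test compounds were applied to cells in 96-well plates for 48 hours at 5 doses. GI50 is the concentration that inhibits growth by half.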 The source made the active and inactive calls. Cut-off read from the data, not from the text of the source: active = GI50 up to about 1.1 µM and inactive = higher. A value given as a limit tells only on which side of the number the result lay.

Test systems include NCI-H226; CAKI-1; MOLT-4; RPMI-8226; HCT-116; SF-539; HCC 2998; K562; A498; KM12; A549; HOP-62; UACC-62; SF-268; IGROV-1; NCI-H460; SN12C; HCT-15; NCI-H23; CCRF-CEM.
Common to all, as to experiment: NCI anticancer screen, dose series, 48 h

In the case of `COC(=O)C1C(O)C(C)C(O)OC1C(C)C(O)C(C)/C=C\C=C(/C)C(=O)Nc1c(C)c(OC(C)=O)c2c(c1O)C(=O)C(C)=C1OCOC(/C(C)=C/C(C)=O)=C12` (stereo not given), the GI50 in the assay with NCI-H226 is 12.4 µM (inactive); in the assay on CAKI-1 it was 17.6 µM (inactive); in the assay with MOLT-4, 10.7 µM (inactive); in the assay on RPMI-8226, 9.48 µM (inactive); in the assay on HCT-116, 9.53 µM (inactive); with SF-539 it was 13.2 µM (inactive). The GI50 in the assay with HCC 2998 was 13.9 µM (inactive); in the assay with K562 it was 16.5 µM (inactive); in the assay with A498 it was 15.2 µM (inactive); with KM12, 14 µM (inactive); with A549, 15.1 µM (inactive); with HOP-62, 11.6 µM (inactive). Also, the GI50 in the assay with UACC-62 is 14.3 µM (inactive); with SF-268, 3.08 µM (inactive); in the assay on IGROV-1 it was 12.6 µM (inactive); in the assay with NCI-H460 it was 13.7 µM (inactive); in the assay on SN12C it was 12.4 µM (inactive); with HCT-15 it was 14.3 µM. In addition, the GI50 with NCI-H23 is 14.2 µM (inactive); in the assay with CCRF-CEM it was 5.96 µM (inactive).
On to `CCCCCCCCCCCCCCCCNCC(O)CN` (stereo not given), for which the GI50 was 8.89 µM (inactive) in the assay with NCI-H226; 12.2 µM (inactive) in the assay on CAKI-1; 2.07 µM (inactive) in the assay with MOLT-4; 2 µM (inactive) in the assay with RPMI-8226; 1.87 µM (inactive) in the assay on HCT-116; 2.34 µM (inactive) with SF-539. Moreover, the GI50 with HCC 2998 was 2.39 µM (inactive); in the assay with K562 it was 1.75 µM (inactive); in the assay on A498 it was 18 µM (inactive); in the assay with KM12, 1.75 µM (inactive); in the assay on A549 it was 3.44 µM (inactive); with HOP-62, 16.7 µM (inactive). For the same compound, the GI50 is 4.7 µM (inactive) in the assay on UACC-62; 3.32 µM (inactive) with SF-268; 5.19 µM (inactive) in the assay with IGROV-1; 1.84 µM (inactive) in the assay on NCI-H460; 4.07 µM (inactive) with SN12C; 2.06 µM in the assay with HCT-15. Also, the figures for the GI50 in the assay with NCI-H23 and in the assay with CCRF-CEM were 6.71 µM (inactive) and 1.96 µM (inactive), respectively.
In the case of `CC(C)=CC1CC(=O)C1(C)Sc1ccccc1` (stereo not given), the GI50 in the assay with NCI-H226 is 34.4 µM (inactive); in the assay on CAKI-1 it was 54.7 µM (inactive); in the assay on MOLT-4, 34.4 µM (inactive); with RPMI-8226, 20.6 µM (inactive); in the assay with HCT-116 it was 29.6 µM (inactive); with SF-539 it was > 100 µM (inactive). Moreover, the GI50 with HCC 2998 is > 100 µM (inactive); in the assay with K562, 21.9 µM (inactive); in the assay on A498 it was 56.2 µM (inactive); in the assay with KM12 it was > 100 µM (inactive); in the assay on A549 it was 48.2 µM (inactive); with HOP-62 it was > 100 µM (inactive). Also, the GI50 in the assay with UACC-62 was > 100 µM (inactive); in the assay on SF-268, 51.3 µM (inactive); in the assay with IGROV-1, > 100 µM (inactive); with NCI-H460, 25 µM (inactive); in the assay on SN12C, 71.8 µM (inactive); in the assay with HCT-15, 17.3 µM. Moreover, the GI50 was 56.4 µM (inactive) with NCI-H23 and 19.1 µM (inactive) with CCRF-CEM.
For `CC[C@@]1(O)C[C@H](OC2CC(N(C)C)C(O)C(C)O2)c2c(cc3c(c2O)C(=O)c2c(O)ccc(O)c2C3=O)[C@H]1C(=O)OC` (stereo not given in full), the GI50 was 0.108 µM (active) in the assay with NCI-H226; 0.027 µM (active) in the assay on CAKI-1; 0.0252 µM (active) in the assay with MOLT-4; 0.0364 µM (active) in the assay on RPMI-8226; 0.0229 µM (active) with HCT-116; 0.0895 µM (active) in the assay with SF-539. For the same compound, the GI50 in the assay with HCC 2998 is 0.162 µM (active); in the assay with K562, 0.0292 µM (active); in the assay on A498, 0.0448 µM (active); in the assay with KM12 it was 0.0635 µM (active); in the assay with A549, 0.0365 µM (active); with HOP-62, 0.107 µM (active). Also, the GI50 in the assay with UACC-62 was 0.0451 µM (active); in the assay on SF-268, 0.0536 µM (active); in the assay on IGROV-1, 0.0468 µM (active); with NCI-H460 it was 0.0221 µM (active); with SN12C it was 0.0377 µM (active); with HCT-15 it was 0.0452 µM. The values for the GI50 in the assay on NCI-H23 and in the assay with CCRF-CEM were 0.11 µM (active) and 0.0242 µM (active), respectively.
In the case of `O=C(NC(Cc1ccc(I)cc1)C(=O)O)c1ccc(Cl)cc1` (stereo not given), the GI50 in the assay on NCI-H226 was > 100 µM (inactive); in the assay on CAKI-1 it was > 100 µM (inactive); in the assay on MOLT-4, > 74.3 µM (inactive); in the assay on RPMI-8226, 59.3 µM (inactive); with HCT-116 it was > 100 µM (inactive); with SF-539, > 77.1 µM (inactive). For the same compound, the GI50 with HCC 2998 is > 38.8 µM (inactive); in the assay with K562 it was > 100 µM (inactive); in the assay with A498, > 100 µM (inactive); in the assay on KM12, > 100 µM (inactive); in the assay on A549 it was > 100 µM (inactive); with HOP-62, > 100 µM (inactive). For the same compound, the GI50 was 74.8 µM (inactive) in the assay with UACC-62; > 100 µM (inactive) in the assay with SF-268; > 100 µM (inactive) in the assay on IGROV-1; > 100 µM (inactive) with NCI-H460; > 100 µM (inactive) in the assay with SN12C; > 100 µM in the assay with HCT-15. For the same compound, the figures for the GI50 in the assay on NCI-H23 and in the assay with CCRF-CEM were > 100 µM (inactive) and > 81.5 µM (inactive), respectively.
Turning to `O=C(Nc1ccc(Cl)cc1)C(=O)C(C(=O)c1ccccc1-c1ccccc1)C1OC(=O)c2ccccc21` (stereo not given), the GI50 was 6.34 µM (inactive) in the assay with NCI-H226; 24 µM (inactive) in the assay on CAKI-1; 29.4 µM (inactive) with MOLT-4; 26.9 µM (inactive) with RPMI-8226; 18.2 µM (inactive) in the assay on HCT-116; 22.5 µM (inactive) in the assay with SF-539. For the same compound, the GI50 in the assay on HCC 2998 was 19.4 µM (inactive); in the assay with K562 it was 34.4 µM (inactive); with A498 it was 16.4 µM (inactive); with KM12 it was 17.3 µM (inactive); in the assay with A549, 23.6 µM (inactive); with HOP-62, 26.4 µM (inactive). Moreover, the GI50 was 15.9 µM (inactive) in the assay on UACC-62; 21.3 µM (inactive) in the assay with SF-268; 29.1 µM (inactive) in the assay with IGROV-1; 19.4 µM (inactive) in the assay with NCI-H460; 19.3 µM (inactive) in the assay on SN12C; 17.6 µM with HCT-15. The GI50 in the assay with NCI-H23 is 23.1 µM (inactive); with CCRF-CEM, 18.2 µM (inactive).
